Results published in patent US20130303763A1, “METHODS AND COMPOSITIONS FOR THE TREATMENT OF NECROTIZING ENTEROCOLITIS” (priority 2012, published 2013).

Tested on: mice suffering from NEC
Experiment: Treatment of necrotizing enterocolitis (NEC) induced in mice by a 5 day protocol of formula (gavage) feeding and hypoxia
Type: in vivo, mice (C57BL/6)
Experimental: Ten day-old breastfed SERT knockout mice, TPH1 knockout mice and wildtype littermate mice (C57BL/6) were subjected to a 5 day protocol of formula (gavage) feeding and hypoxia. This protocol reproducibly induces NEC in mice. Weights of all groups were monitored daily and cytokines were analyzed in the distal ileum at day 5. This experiment was then repeated using two groups of mice that received 100 mg/kg or 200 mg/kg of (2S)-ethyl 2-amino-3-(4-(2-amino-6-(2,2,2-trifluoro-1-(3′-fluoro-[1,1′-biphenyl]-4-yl)ethoxy)pyrimidin-4-yl)phenyl)propanoate (LP-920540), and a control group that received vehicle.

CCOC(=O)[C@@H](N)Cc1ccc(-c2cc(OC(c3ccc(-c4cccc(F)c4)cc3)C(F)(F)F)nc(N)n2)cc1 (stereo partly drawn) [LP-920540, (2S)-ethyl 2-amino-3-(4-(2-amino-6-(2,2,2-trifluoro-1-(3′-fluoro-[1,1′-biphenyl]-4-yl)ethoxy)pyrimidin-4-yl)phenyl)propanoate]
weight loss versus vehicle-treated animals (FIG. 1) (100 or 200 mg/kg, five days of the experiment): lost significantly less weight | mortality (FIG. 2) (100 or 200 mg/kg, vehicle treated animals 50%): 5-10% | levels of transcripts encoding IL-6 versus vehicle-treated mice (distal ileum at day 5): significantly less upregulated | levels of transcripts encoding IL-18 versus vehicle-treated mice (distal ileum at day 5): significantly less upregulated
